Several values for one entry are separate records, joined by “and”; a condition that tells them apart may be missing. Identical values can stand only once. Like-named read-outs stand apart in the source and are kept apart here. No end group written: not given here.

Data set [1] addresses T1, GmPOPB-S577A (inactive mutant) (Galerina marginata, UniProt H2E7Q8, S577A).
T1 construct: His-tag (TEV-cleavable) (cleaved yes); made in house; host or cells: E. coli BL21(DE3)
T1 sequence (H2E7Q8 1-730 S577A): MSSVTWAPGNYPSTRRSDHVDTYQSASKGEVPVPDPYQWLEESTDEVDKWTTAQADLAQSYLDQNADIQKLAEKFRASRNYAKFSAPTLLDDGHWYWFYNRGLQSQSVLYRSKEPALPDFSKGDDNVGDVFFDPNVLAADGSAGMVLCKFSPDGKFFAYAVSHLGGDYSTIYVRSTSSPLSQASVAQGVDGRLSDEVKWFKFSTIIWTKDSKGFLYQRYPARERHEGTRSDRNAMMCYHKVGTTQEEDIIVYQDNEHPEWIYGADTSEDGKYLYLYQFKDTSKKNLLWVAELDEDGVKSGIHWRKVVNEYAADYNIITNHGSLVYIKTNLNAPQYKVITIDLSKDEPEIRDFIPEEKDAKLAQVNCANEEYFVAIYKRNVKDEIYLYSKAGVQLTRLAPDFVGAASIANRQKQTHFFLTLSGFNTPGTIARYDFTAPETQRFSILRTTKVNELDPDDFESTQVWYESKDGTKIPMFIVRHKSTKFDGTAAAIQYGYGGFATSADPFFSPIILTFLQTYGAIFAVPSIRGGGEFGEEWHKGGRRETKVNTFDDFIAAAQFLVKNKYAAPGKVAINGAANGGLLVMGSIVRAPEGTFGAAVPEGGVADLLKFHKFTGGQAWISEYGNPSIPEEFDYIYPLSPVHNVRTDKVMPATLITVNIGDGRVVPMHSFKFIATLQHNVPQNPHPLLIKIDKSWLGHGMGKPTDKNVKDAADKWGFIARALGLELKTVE
Briefly: Isothermal titration calorimetry, peptide binding to inactive mutant GmPOPB_S577A. The conditions noted are these: for ΔG / ΔH / Kd / -TΔS / Binding detected by ITC: ITC; for ΔG / ΔH / Kd / -TΔS: 20 °C; for ΔG / ΔH / -TΔS: average ± SEM; for Kd: peptide titrated into GmPOPB_S577A, 50 mM Tris pH 8.0, 50 mM NaCl, 10 mM DTT, single-site model, n fixed at 1.0, average ± SEM of at least 2 measurements; for Binding detected by ITC: peptide concentrations up to 1 mM.

Data set [2] can be described thus: Peptide solubility when preparing ITC ligand solutions. In kind it is physicochemical. The conditions noted are these: peptide ligand solution for ITC. On the procedure:
Supplementary Table 3 Thermodynamic parameters obtained by ITC.
Peptide Sequence Kd (μM) ΔG ΔH -TΔS N
(kcal mol-1) (kcal mol-1) (kcal mol-1) measurements
9mer IW GIGCNPW ND ND ND ND
ND – peptide solubility was lower than 300 μM and measurements could not be
Errors reported are standard error of the mean using the replicates indicated in the
table and the fitted values using Malvern data analysis software.

For data set [3], the system named is CC[C@H](C)[C@H](N)C(=O)N[C@@H](Cc1c[nH]c2ccccc12)C(=O)NCC(=O)N[C@H](C(=O)NCC(=O)N[C@@H](CS)C(=O)N[C@@H](CC(N)=O)C(=O)N1CCC[C@H]1C(=O)N[C@@H](Cc1c[nH]c2ccccc12)C(=O)N[C@H](C(=O)N[C@@H](C)C(=O)N[C@@H](CCC(=O)O)C(=O)N[C@@H](Cc1c[nH]cn1)C(=O)N[C@H](C(=O)O)C(C)C)[C@@H](C)O)[C@@H](C)CC. Briefly: purified protein, by the assay type. The conditions noted are these: pH 8.0.
Experimental: (§1) Comparison between distinct substrates was performed in 50 mM Tris pH 8.0, 50 mM NaCl, 10 mM DTT with varying concentrations of substrates at room temperature. All reactions were performed in duplicates. Reactions were started by adding GmPOPB (50 nM for GmAMA1_C6S, 1 μM for the 13mer and 14mer, and 20 nM for other substrates) to the assay mixture containing buffer and peptide. Reactions were quenched at several time points by adding 50 μL reaction mixture to 20 μL 6% TFA. Reactants were separated from products for quantification by injecting 50 μL of each quenched time point mix onto a ZORBAX SB-C18, 5 µm, 9.4 × 50 mm (Agilent) column connected to an Agilent LC-MS (G6130B Single Quad, Agilent Technologies). Reactants were separated from products using a gradient from H2O containing 0.1% TFA or 0.1% formic acid and 5% acetonitrile to 50% acetonitrile, at 1.5 ml/min for 8 min. […] The sum of product+substrate was assumed equal to the total initial amount of substrate, product converted from % to concentration. This value was divided by concentration of enzyme present to yield v/E t (min^−1). […] For progress curves with the 35mer substrate, measurements were triplicate and quantification relied on ion counts from mass spectrometry. […] Authentic cyclic peptide was quantified by UV absorbance. […] Kinetic data were fitted to a Michaelis–Menten equation using GraphPad Prism, and values reported are average and standard error of the mean.

The test system of data set [4] is CC[C@H](C)[C@H](N)C(=O)N[C@@H](Cc1c[nH]c2ccccc12)C(=O)NCC(=O)N[C@H](C(=O)NCC(=O)N[C@@H](CS)C(=O)N[C@@H](CC(N)=O)C(=O)N1CCC[C@H]1C(=O)N[C@@H](Cc1c[nH]c2ccccc12)C(=O)N[C@H](C(=O)N[C@@H](C)C(=O)N[C@@H](CCC(=O)O)C(=O)N[C@@H](Cc1c[nH]cn1)C(=O)O)[C@@H](C)O)[C@@H](C)CC. Briefly: purified protein, by the assay type. The conditions noted are these: pH 8.0.
Experimental: as §1
Data set [5] has as its system CC[C@H](C)[C@H](NC(=O)CNC(=O)[C@H](Cc1c[nH]c2ccccc12)NC(=O)[C@@H](NC(=O)[C@@H]1CCCN1C(=O)[C@H](CC(C)C)NC(=O)[C@H](CCCNC(=N)N)NC(=O)[C@@H](NC(=O)[C@H](C)NC(=O)[C@H](CC(N)=O)NC(=O)[C@@H](NC(=O)[C@H](CC(=O)O)NC(=O)[C@H](Cc1ccccc1)NC(=O)[C@@H](N)CCSC)[C@@H](C)O)[C@@H](C)O)[C@@H](C)CC)C(=O)NCC(=O)N[C@@H](CS)C(=O)N[C@@H](CC(N)=O)C(=O)N1CCC[C@H]1C(=O)N[C@@H](Cc1c[nH]c2ccccc12)C(=O)N[C@H](C(=O)N[C@@H](C)C(=O)N[C@@H](CCC(=O)O)C(=O)N[C@@H](Cc1c[nH]cn1)C(=O)N[C@H](C(=O)N[C@@H](CC(=O)O)C(=O)N[C@@H](CCC(N)=O)C(=O)N[C@H](C(=O)N[C@@H](CC(C)C)C(=O)N[C@@H](C)C(=O)N[C@@H](CO)C(=O)NCC(=O)N[C@@H](CC(N)=O)C(=O)N[C@@H](CC(=O)O)C(=O)N[C@H](C(=O)N[C@@H](CS)C(=O)O)[C@@H](C)CC)[C@@H](C)O)C(C)C)[C@@H](C)O. Briefly: purified protein, by the assay type. The conditions noted are these: pH 8.0.
Experimental: as §1

For data set [6], the target named is T1, GmPOPB-S577A (inactive mutant). The conditions noted are these: ITC, GmPOPB_S577A, cited from earlier work. An excerpt:
Peptide Sequence Kd (μM) ΔG ΔH -TΔS N (kcal mol-1) (kcal mol-1) (kcal mol-1) measurements 9mer IW GIGCNPW ND ND ND ND 10mer IW GIGCNPW T 83 ± 17 -5.5 ± 0.1 -3.1 ± 0.5 -2.4 ± 0.3 2 11mer IW GIGCNPW TA 39 ± 18 -5.9 ± 0.3 -1.5 ± 0.7 […] 2 12mer IW GIGCNPW TAE 21 ± 5 -6.3 ± 0.1 -1.0 ± 0.3 -5.3 ± 0.4 2 13mer IW GIGCNPW TAEH 2.4 ± 0.1 -7.3 ± 0.1 -0.6 ± 0.2 -6.9 ± 0.2 2 14mer IW GIGCNPW TAEHV 9.5 ± 1.1 -6.7 ± 0.1 -0.9 ± 0.2 -5.8 ± 0.2 2 9mer- […] 121 ± 19 -5.3 ± 0.1 -6.4 ± 1.6 2.6 ± 1.5 3 recognition sequence 12mer- ...

Data set [7] concerns the target T2, GmPOPB-S577A (Galerina marginata, UniProt H2E7Q8, S577A).
T2 sequence: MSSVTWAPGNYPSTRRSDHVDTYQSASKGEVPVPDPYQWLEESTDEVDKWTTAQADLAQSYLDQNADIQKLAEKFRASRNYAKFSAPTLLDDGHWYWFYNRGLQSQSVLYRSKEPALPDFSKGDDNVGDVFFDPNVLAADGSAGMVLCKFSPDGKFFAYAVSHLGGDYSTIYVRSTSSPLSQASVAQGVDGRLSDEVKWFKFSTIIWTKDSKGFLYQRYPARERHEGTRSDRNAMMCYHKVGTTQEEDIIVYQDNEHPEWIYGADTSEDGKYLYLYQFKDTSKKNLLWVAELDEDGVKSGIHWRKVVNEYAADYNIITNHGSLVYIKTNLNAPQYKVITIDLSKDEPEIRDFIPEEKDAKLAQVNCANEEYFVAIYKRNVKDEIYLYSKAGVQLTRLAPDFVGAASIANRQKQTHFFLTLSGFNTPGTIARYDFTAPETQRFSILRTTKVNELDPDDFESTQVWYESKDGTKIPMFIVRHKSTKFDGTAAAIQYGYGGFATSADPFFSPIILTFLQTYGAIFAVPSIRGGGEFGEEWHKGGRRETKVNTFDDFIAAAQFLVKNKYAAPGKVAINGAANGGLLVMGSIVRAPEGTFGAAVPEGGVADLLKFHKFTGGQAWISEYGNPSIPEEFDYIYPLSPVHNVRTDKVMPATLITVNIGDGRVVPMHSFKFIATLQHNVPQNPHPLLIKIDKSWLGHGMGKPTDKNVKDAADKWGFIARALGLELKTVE
Briefly: ITC. Particulars: both partners purified.

[8] abbreviates: average ± SEM, previously published ref 21.

For IWGIGCNPWTA [11mer], in data set [1] (GmPOPB_S577A), the ΔG is -5.9 ± 0.3 kcal/mol and the ΔH was -1.5 ± 0.7 kcal/mol. Further, the Kd in data set [1] is 39 ± 18 µM.

As for IWGIGCNPWT [10mer], in data set [1] (GmPOPB_S577A), the “-TΔS” value is -2.4 ± 0.3 kcal/mol, the ΔG is -5.5 ± 0.1 kcal/mol and the ΔH is -3.1 ± 0.5 kcal/mol. Besides, the affinity in data set [1], expressed as Kd, was 83 ± 17 µM.

As to MFDTNATRLP [leader peptide], the “Binding detected by ITC” value is on record as “no detectable binding” in data set [1] (GmPOPB_S577A) and “does not bind” in data set [1] (GmPOPB_S577A, listed as 10-residue leader).

On to `CC[C@H](C)[C@H](NC(=O)CNC(=O)[C@H](Cc1c[nH]c2ccccc12)NC(=O)[C@@H](NC(=O)[C@@H]1CCCN1C(=O)[C@H](CC(C)C)NC(=O)[C@H](CCCNC(=N)N)NC(=O)[C@@H](NC(=O)[C@H](C)NC(=O)[C@H](CC(N)=O)NC(=O)[C@@H](NC(=O)[C@H](CC(=O)O)NC(=O)[C@H](Cc1ccccc1)NC(=O)[C@@H](N)CCSC)[C@@H](C)O)[C@@H](C)O)[C@@H](C)CC)C(=O)NCC(=O)N[C@@H](CS)C(=O)N[C@@H](CC(N)=O)C(=O)N1CCC[C@H]1C(=O)N[C@@H](Cc1c[nH]c2ccccc12)C(=O)N[C@H](C(=O)N[C@@H](C)C(=O)N[C@@H](CCC(=O)O)C(=O)N[C@@H](Cc1c[nH]cn1)C(=O)N[C@H](C(=O)N[C@@H](CC(=O)O)C(=O)N[C@@H](CCC(N)=O)C(=O)N[C@H](C(=O)N[C@@H](CC(C)C)C(=O)N[C@@H](C)C(=O)N[C@@H](CO)C(=O)NCC(=O)N[C@@H](CC(N)=O)C(=O)N[C@@H](CC(=O)O)C(=O)N[C@H](C(=O)N[C@@H](CS)C(=O)O)[C@@H](C)CC)[C@@H](C)O)C(C)C)[C@@H](C)O` [35mer], for which, in data set [1] (GmPOPB_S577A), the “-TΔS” value was -1.2 ± 0.4 kcal/mol and the ΔG is -9.3 ± 0.1 kcal/mol.

As to IWGIGCNPW [9mer], in data set [2] (aqueous buffer, Tris pH 8.0 buffer with DTT), the solubility was < 300 µM. Besides, the “Peptide solubility” value in data set [2] is “not sufficiently soluble for analysis”.

On to GmPOPB (Galerina marginata CBS 339.88), for which, in data set [3], the Km was 380 µM, the kcat came to 0.00967 s⁻¹ and the kcat/Km is 16.7 ± 1.7 M⁻¹ s⁻¹. In addition, in data set [4], the Michaelis-Menten constant (Km) was 24.4 ± 5.2 µM and 25 µM; the kcat is 0.00817 ± 0.0005 s⁻¹ and 0.00817 s⁻¹; the kcat/Km worked out at 333 ± 67 M⁻¹ s⁻¹. Moreover, in data set [5], the Km stood at 23 ± 11 µM, the kcat is 0.0533 ± 0.0067 s⁻¹ and the kcat/Km is 2330 ± 1200 M⁻¹ s⁻¹.

Consider IWGIGCNPWTAEH [13mer], for which, in data set [1] (GmPOPB_S577A), the “-TΔS” value is -6.9 ± 0.2 kcal/mol, the ΔG was -7.3 ± 0.1 kcal/mol and the ΔH was -0.6 ± 0.2 kcal/mol. The molecule further returned a Kd in data set [1] of 2.4 ± 0.1 µM. Also, the “Difference in affinity (reduction in binding) between the 35mer and the 13mer” value in data set [1] (ratio of ITC Kd values, GmPOPB_S577A) is ~ 20 fold.

For “VDQTLASGNDIC [12mer-recognition sequence]”, in data set [1] (GmPOPB_S577A), the “-TΔS” value was 16.3 ± 3.0 kcal/mol, the ΔG is -7.1 ± 0.1 kcal/mol and the ΔH was -23.5 ± 3.1 kcal/mol.

On to TLASGNDIC [9mer-recognition sequence], for which, in data set [1] (GmPOPB_S577A), the “-TΔS” value is 2.6 ± 1.5 kcal/mol, the ΔG was -5.3 ± 0.1 kcal/mol and the ΔH is -6.4 ± 1.6 kcal/mol.

Consider “WTAEHVDQTLASGNDIC [17mer-recognition sequence]”, for which, in data set [6] (20 °C, 50 mM Tris pH 8.0, 50 mM NaCl, 10 mM DTT, average ± SEM, previously published ref 21), the Kd was 0.43 ± 0.01 µM. For the same molecule, in data set [6] (setting [8]), the “-TΔS” value is 1.7 ± 0.4 kcal/mol, the ΔG was -8.5 ± 0.1 kcal/mol and the ΔH is -10.2 ± 0.4 kcal/mol. In addition, the “Difference in ΔG between the 17mer recognition sequence and the 25mer peptide” value in data set [6] is 1.34 kcal/mol. For the same molecule, the Kd in data set [6] (previously published ref 21) is 0.43 ± 0.01 µM.

With IWGIGCNPWTAE [12mer], in data set [1] (GmPOPB_S577A), the “-TΔS” value is -5.3 ± 0.4 kcal/mol, the ΔG is -6.3 ± 0.1 kcal/mol and the ΔH is -1.0 ± 0.3 kcal/mol. The affinity in data set [1], expressed as Kd, was 21 ± 5 µM.

Take TLASGNDIC [truncated recognition sequence TLASGNDIC (9 residues)]: in data set [7], binding was characterised by a dissociation constant (Kd) of 121 µM.

In data set [7], VDQTLASGNDIC [truncated recognition sequence VDQTLASGNDIC (12 residues)] returned a dissociation constant (Kd) of 5 µM.

What is called Kd is a measure of binding affinity in units of concentration. What is called solubility is how much of the substance goes into solution per volume. A higher solubility goes with a readily soluble substance. The term Km denotes the concentration of substrate that gives half-maximal velocity. Broadly, the kcat is the maximal rate divided by the concentration of active sites. The kcat/Km is the turnover number divided by the Michaelis constant.

Values taken from PMC5648786, “Characterization of a dual function macrocyclase enables design and use of efficient macrocyclization substrates” (Nature Communications, 2017).
